The results in this text go back to ChEMBL document CHEMBL1955752, “Synthesis and evaluation of fluorobenzoylated di- and tripeptides as inhibitors of cyclooxygenase-2 (COX-2)” (Bioorg Med Chem, 2012).

Active and inactive are the calls of the source. No cut-off for these calls is given here. Residues, ends and D or L forms follow the SMILES beside them.

The target of assay [1] is T1, Prostaglandin G/H synthase 1 (Ovis aries) (UniProt P05979).
T1 sequence (whole entry): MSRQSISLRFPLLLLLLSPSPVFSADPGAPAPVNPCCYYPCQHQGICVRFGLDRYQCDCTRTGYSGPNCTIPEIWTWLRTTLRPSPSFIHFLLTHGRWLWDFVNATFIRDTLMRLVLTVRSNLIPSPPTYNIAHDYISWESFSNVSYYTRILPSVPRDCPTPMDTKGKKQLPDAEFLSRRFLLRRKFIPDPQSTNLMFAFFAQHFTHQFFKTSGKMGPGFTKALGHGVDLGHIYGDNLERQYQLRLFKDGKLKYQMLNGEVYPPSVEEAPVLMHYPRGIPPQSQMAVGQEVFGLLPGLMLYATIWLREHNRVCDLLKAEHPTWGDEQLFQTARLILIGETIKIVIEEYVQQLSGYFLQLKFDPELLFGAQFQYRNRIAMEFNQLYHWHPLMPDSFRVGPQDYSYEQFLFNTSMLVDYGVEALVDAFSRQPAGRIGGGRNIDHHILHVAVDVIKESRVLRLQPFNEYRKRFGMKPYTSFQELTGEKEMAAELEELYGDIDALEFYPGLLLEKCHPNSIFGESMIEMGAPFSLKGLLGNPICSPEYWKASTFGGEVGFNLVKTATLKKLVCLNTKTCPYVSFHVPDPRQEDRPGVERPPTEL
Put plainly: Inhibition of ovine COX1 at 1 nM to 1 mM by fluorescence assay.

Assay [2] has as its target T2, Prostaglandin G/H synthase 2 (Homo sapiens, UniProt P35354).
T2 sequence (P35354 whole entry): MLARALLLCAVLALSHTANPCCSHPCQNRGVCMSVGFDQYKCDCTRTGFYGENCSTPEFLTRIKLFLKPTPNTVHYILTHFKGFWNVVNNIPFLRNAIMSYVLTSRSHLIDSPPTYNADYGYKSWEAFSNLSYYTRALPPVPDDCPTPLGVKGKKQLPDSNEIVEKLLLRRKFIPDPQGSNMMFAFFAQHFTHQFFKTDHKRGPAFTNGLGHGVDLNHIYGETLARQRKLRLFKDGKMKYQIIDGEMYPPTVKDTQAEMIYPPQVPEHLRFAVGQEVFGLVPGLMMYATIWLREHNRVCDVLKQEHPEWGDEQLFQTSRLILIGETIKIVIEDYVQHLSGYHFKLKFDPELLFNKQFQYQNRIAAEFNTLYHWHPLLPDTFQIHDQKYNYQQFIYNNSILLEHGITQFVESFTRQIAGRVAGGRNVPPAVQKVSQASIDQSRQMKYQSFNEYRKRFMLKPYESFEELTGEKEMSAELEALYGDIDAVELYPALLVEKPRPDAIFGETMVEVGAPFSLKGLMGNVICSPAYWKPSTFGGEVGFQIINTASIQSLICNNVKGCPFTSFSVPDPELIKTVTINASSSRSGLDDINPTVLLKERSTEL
Put plainly: Inhibition of human recombinant COX2 by fluorescence assay.

For assay [3], the target named is T3, Prostaglandin G/H synthase 1 (Ovis aries, UniProt P05979).
T3 sequence (P05979 whole entry): T1 sequence (whole entry)
Put plainly: Inhibition of ovine COX1 by fluorescence assay.

In assay [4] the target is T2, Prostaglandin G/H synthase 2. Put plainly: Inhibition of COX2 by ELISA.
The target is the same in assay [5]. Put plainly: Binding affinity to COX2 by surface plasmon resonance spectroscopy.
For assay [6], the target named is T4, Prostaglandin G/H synthase 2 (Homo sapiens) (UniProt P35354).
T4 sequence (whole entry): T2 sequence (P35354 whole entry)
Put plainly: Inhibition of human recombinant COX2 at 1 nM to 1 mM by fluorescence assay.

As to `O=C(N[C@@H](Cc1ccc(O)cc1)C(=O)N[C@@H](Cc1c[nH]c2ccccc12)C(=O)N[C@@H](CO)C(=O)O)c1ccc(F)cc1`, in assay [1], the inhibition entry is “inactive”. Also, the IC50 in assay [2] came to 180 µM.

In the case of `CSCC[C@H](NC(=O)[C@H](Cc1ccc(O)cc1)NC(=O)c1ccc(F)cc1)C(=O)N[C@@H](CC(=O)O)C(=O)O`, in assay [1], the inhibition result was “inactive”. In addition, the IC50 in assay [2] is greater than 1000 µM.

As for `O=C(N[C@@H](Cc1c[nH]c2ccccc12)C(=O)N[C@@H](CO)C(=O)O)c1ccc(F)cc1`, the inhibition result in assay [1] is “inactive”. Moreover, the half-inhibitory concentration (IC50) in assay [2] amounted to 200 µM.

Consider `O=C(N[C@@H](Cc1ccc(O)cc1)C(=O)N[C@@H](CO)C(=O)O)c1ccc(F)cc1`, for which, in assay [1], the inhibition entry is “inactive”. Besides, in assay [2], the IC50 was 140 µM.

With `CSCC[C@H](NC(=O)[C@H](Cc1ccccc1)NC(=O)c1ccc(F)cc1)C(=O)N[C@@H](CCC(=O)O)C(=O)O`, in assay [1], the inhibition entry is “inactive”. The IC50 in assay [2] is greater than 1000 µM.

Regarding `O=C(N[C@@H](Cc1ccccc1)C(=O)N[C@@H](CS)C(=O)N[C@@H](CO)C(=O)O)c1ccc(F)cc1`, the IC50 came to 27 µM in assay [3] and 13 µM in assay [2].

Turning to `CSCC[C@H](NC(=O)[C@H](Cc1ccccc1)NC(=O)c1ccc(F)cc1)C(=O)N[C@@H](CC(=O)O)C(=O)O`, the inhibition entry in assay [1] is “inactive”. Moreover, in assay [2], the IC50 was found to be 450 µM.

In the case of `O=C(N[C@@H](CS)C(=O)N[C@@H](CO)C(=O)O)c1ccc(F)cc1`, the IC50 in assay [3] was 5 µM; in assay [2], 15 µM.

On to `CSCC[C@H](NC(=O)[C@H](Cc1ccc(O)cc1)NC(=O)c1ccc(F)cc1)C(=O)N[C@@H](CCC(=O)O)C(=O)O`, for which the inhibition entry in assay [1] was “inactive”. Besides, in assay [2], the IC50 was found to be 500 µM.

For the compound `CSCC[C@H](NC(=O)[C@H](Cc1c[nH]c2ccccc12)NC(=O)c1ccc(F)cc1)C(=O)N[C@@H](CCC(=O)O)C(=O)O`, the inhibition result in assay [1] was “inactive”. In addition, the IC50 in assay [2] worked out at 350 µM.

For the compound `N[C@@H](Cc1c[nH]c2ccccc12)C(=O)N[C@@H](Cc1ccc(O)cc1)C(=O)N[C@@H](CC(=O)O)C(=O)O` (H-Trp-Tyr-Asp-OH), the inhibition result in assay [1] is “inactive”. For the same compound, the IC50 in assay [2] turned out to be 700 µM.

As for `O=C(O)C[C@H](NC(=O)[C@H](CS)NC(=O)c1ccc(F)cc1)C(=O)O`, the IC50 is 15 µM in assay [3] and 14 µM in assay [2].

Take `O=C(O)C[C@H](NC(=O)[C@H](Cc1ccc(O)cc1)NC(=O)c1ccc(F)cc1)C(=O)O`: the inhibition entry in assay [1] was “inactive”. For the same compound, in assay [2], the IC50 turned out to be 110 µM.

Turning to `N[C@@H](Cc1c[nH]c2ccccc12)C(=O)N[C@@H](CS)C(=O)N[C@@H](CO)C(=O)O` (H-Trp-Cys-Ser-OH), the IC50 in assay [3] was determined as 6 µM; in assay [4] it was 15 nM; in assay [2], 21 µM. Moreover, in assay [5], the affinity, expressed as Kd, was 0.19 nM.

Consider `O=C(N[C@@H](Cc1c[nH]c2ccccc12)C(=O)N[C@@H](CS)C(=O)N[C@@H](CO)C(=O)O)c1ccc(F)cc1`, for which the IC50 came to 140 µM in assay [3] and 85 µM in assay [2].

Take `O=C(O)C[C@H](NC(=O)[C@H](Cc1ccc(O)cc1)NC(=O)[C@H](Cc1c[nH]c2ccccc12)NC(=O)c1ccc(F)cc1)C(=O)O`: the inhibition entry in assay [6] and in assay [1] was “inactive” in each case.

As for `CSCC[C@H](NC(=O)[C@H](Cc1c[nH]c2ccccc12)NC(=O)c1ccc(F)cc1)C(=O)N[C@@H](CC(=O)O)C(=O)O`, in assay [1], the inhibition entry was “inactive”. Moreover, the IC50 in assay [2] worked out at 450 µM.
